Data published in ChEMBL document CHEMBL3991601, “The target landscape of clinical kinase drugs” (Science, 2017).
Structures can show the parent of a compound that is named as a salt. Active and inactive are the calls of the source. On the calls: in the data inactive means no Kd found up to 30 µM.

Tests used:
[1] = molecular target: MAP kinase-activated protein kinase 3 (Homo sapiens, UniProt Q16644)
[2] = molecular target: Cell division cycle 7-related protein kinase (Homo sapiens, UniProt O00311)
Misshapen-like kinase 1 = Misshapen-like kinase 1 (Homo sapiens, UniProt Q8N4C8)
[3] = molecular target: T1, Cyclin-dependent kinase-like 5 (Homo sapiens, UniProt O76039)
T1 sequence (O76039 whole entry): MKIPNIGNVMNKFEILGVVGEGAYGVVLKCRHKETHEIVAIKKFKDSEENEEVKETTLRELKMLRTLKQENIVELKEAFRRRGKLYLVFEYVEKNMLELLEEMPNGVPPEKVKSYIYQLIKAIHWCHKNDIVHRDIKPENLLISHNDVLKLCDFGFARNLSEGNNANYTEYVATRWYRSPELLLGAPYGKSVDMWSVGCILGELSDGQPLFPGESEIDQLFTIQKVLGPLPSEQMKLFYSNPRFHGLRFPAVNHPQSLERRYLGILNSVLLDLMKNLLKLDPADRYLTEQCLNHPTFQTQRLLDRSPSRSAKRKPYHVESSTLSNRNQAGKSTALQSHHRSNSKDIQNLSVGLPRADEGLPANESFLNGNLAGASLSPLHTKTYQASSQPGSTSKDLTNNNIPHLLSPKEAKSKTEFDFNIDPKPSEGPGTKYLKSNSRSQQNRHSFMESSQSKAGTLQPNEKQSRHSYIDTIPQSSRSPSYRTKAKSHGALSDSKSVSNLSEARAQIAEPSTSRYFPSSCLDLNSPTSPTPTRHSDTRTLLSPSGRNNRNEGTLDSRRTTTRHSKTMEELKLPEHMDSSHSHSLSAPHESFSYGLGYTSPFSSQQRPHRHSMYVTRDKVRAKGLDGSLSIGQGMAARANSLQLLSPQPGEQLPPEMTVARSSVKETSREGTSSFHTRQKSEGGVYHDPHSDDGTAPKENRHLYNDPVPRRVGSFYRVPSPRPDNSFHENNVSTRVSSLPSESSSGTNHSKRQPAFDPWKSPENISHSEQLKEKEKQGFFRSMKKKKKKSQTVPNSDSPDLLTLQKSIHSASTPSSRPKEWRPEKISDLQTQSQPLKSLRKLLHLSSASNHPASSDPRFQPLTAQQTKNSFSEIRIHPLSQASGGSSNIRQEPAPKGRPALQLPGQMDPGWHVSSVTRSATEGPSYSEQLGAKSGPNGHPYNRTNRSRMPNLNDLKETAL

[4] = molecular target: T2, Dual specificity protein kinase TTK (Homo sapiens, UniProt P33981)
T2 sequence (P33981 whole entry): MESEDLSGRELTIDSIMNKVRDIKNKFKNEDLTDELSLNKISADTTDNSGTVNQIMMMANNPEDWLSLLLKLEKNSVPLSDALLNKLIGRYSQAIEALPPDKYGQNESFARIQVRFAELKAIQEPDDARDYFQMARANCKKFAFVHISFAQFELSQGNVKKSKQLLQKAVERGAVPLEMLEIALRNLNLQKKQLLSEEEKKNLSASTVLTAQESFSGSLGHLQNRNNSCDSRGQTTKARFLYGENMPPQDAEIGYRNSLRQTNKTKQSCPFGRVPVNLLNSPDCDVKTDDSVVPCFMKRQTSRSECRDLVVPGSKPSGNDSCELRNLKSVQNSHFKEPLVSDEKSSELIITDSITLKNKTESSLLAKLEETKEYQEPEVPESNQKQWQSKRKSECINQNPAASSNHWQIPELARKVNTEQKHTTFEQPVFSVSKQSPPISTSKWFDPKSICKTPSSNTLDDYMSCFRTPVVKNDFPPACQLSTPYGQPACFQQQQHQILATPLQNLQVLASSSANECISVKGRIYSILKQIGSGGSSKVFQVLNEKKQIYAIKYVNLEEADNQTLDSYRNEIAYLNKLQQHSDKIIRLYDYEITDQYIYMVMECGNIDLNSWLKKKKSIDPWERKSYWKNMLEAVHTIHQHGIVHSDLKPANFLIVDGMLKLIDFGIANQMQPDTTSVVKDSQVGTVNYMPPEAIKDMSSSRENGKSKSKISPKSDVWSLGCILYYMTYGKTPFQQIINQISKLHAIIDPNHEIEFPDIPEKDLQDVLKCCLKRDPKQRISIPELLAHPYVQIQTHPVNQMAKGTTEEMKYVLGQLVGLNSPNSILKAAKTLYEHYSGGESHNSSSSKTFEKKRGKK

[5] = molecular target: Serine/threonine-protein kinase PAK 6 (Homo sapiens, UniProt Q9NQU5)
[6] = molecular target: T3, Dual specificity mitogen-activated protein kinase kinase 4 (Homo sapiens, UniProt P45985)
T3 sequence (P45985 whole entry): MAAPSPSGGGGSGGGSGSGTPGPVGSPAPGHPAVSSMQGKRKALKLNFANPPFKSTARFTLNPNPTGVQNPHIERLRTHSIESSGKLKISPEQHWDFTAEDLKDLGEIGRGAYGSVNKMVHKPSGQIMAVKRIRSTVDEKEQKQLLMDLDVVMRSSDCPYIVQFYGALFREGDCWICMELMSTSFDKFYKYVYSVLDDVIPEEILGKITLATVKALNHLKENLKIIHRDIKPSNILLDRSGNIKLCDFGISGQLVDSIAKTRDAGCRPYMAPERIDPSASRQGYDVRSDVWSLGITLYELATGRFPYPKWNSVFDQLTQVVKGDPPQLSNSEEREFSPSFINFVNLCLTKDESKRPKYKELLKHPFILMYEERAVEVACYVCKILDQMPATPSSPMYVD

MAP kinase-activated protein kinase 3, sequence (Q16644 whole entry): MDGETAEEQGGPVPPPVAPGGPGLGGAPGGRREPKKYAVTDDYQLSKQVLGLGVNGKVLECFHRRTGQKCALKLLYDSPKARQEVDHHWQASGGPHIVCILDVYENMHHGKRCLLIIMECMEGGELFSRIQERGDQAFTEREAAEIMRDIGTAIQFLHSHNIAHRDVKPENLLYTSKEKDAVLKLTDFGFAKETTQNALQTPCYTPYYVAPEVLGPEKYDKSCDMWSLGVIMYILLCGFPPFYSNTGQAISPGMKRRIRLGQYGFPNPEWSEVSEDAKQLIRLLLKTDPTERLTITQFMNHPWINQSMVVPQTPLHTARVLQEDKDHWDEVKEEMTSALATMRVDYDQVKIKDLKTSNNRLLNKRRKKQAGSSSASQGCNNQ
Cell division cycle 7-related protein kinase, sequence (O00311 whole entry): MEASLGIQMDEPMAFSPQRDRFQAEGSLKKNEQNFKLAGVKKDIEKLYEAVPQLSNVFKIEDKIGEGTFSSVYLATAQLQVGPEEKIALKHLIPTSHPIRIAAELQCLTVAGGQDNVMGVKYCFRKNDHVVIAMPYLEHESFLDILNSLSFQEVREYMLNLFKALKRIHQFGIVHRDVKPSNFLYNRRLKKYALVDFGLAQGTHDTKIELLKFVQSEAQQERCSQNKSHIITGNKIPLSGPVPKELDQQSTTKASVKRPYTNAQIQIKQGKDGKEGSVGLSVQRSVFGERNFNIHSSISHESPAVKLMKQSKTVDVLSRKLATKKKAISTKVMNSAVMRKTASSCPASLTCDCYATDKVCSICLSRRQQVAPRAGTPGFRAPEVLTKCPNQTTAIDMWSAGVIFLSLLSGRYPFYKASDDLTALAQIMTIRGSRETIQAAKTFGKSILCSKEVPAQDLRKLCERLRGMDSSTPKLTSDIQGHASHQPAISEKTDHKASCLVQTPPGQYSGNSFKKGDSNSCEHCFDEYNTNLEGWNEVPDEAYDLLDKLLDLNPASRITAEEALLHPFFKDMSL
Serine/threonine-protein kinase PAK 6, sequence (Q9NQU5 whole entry): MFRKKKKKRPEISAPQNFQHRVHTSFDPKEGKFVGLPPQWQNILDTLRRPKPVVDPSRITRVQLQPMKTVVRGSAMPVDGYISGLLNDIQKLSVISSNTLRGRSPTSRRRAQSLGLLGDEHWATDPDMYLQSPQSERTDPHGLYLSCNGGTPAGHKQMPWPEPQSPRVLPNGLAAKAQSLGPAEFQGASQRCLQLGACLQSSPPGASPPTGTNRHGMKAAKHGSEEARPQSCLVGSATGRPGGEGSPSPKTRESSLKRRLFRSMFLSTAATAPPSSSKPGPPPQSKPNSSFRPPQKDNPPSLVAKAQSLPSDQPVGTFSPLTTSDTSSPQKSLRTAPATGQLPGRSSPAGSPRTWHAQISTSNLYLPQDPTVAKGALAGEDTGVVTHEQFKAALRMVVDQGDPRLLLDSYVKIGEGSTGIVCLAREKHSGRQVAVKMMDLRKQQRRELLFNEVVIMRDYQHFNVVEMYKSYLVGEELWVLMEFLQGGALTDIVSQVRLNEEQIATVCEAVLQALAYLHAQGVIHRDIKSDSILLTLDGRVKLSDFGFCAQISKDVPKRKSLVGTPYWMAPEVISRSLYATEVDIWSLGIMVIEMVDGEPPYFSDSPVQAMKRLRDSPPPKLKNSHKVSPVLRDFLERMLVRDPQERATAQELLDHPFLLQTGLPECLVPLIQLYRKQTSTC
Misshapen-like kinase 1, sequence (Q8N4C8 whole entry): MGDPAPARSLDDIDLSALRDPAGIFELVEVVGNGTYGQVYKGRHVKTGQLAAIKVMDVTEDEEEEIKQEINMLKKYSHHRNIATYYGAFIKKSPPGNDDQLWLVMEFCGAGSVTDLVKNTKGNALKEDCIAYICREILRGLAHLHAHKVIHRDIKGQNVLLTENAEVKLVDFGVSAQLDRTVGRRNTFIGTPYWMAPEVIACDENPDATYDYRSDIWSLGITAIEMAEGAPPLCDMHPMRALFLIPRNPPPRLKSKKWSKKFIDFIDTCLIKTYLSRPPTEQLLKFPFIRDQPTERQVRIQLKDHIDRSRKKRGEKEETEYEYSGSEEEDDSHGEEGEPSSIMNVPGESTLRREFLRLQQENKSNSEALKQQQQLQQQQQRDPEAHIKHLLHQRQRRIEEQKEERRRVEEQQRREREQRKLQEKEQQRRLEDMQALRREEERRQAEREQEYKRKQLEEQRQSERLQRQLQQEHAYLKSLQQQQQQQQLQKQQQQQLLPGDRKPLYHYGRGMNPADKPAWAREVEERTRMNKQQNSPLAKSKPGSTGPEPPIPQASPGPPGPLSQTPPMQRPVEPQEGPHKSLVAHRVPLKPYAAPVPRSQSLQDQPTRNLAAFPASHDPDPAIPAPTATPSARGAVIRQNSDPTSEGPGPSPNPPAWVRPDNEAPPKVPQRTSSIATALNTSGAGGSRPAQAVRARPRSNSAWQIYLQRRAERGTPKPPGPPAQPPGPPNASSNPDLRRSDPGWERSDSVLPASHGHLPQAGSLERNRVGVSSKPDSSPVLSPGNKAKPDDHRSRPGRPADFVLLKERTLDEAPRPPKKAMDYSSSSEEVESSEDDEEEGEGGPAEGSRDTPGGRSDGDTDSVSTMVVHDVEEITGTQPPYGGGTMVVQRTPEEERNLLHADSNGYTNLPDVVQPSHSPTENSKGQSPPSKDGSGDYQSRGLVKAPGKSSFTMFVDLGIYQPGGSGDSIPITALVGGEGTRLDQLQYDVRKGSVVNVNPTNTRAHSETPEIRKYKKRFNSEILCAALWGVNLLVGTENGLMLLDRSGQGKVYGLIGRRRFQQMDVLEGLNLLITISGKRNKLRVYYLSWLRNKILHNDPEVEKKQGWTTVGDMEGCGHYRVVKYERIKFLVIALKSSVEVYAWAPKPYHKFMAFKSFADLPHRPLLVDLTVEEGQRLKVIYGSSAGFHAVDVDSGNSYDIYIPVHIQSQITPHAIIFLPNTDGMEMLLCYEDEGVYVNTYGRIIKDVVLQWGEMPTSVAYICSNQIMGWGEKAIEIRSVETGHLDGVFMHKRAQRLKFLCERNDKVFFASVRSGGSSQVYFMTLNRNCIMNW

Row | Structure (SMILES) | Kd [1] | Kd [2] | Kd (Misshapen-like kinase 1) | Kd [3] | Kd [4] | Kd [5] | Kd [6]
1 | Cn1cc(C2=C(c3cn(C4CCN(Cc5ccccn5)CC4)c4ccccc34)C(=O)NC2=O)c2ccccc21 [ENZASTAURIN] | > 30 µM (inactive) | > 30 µM (inactive) | – | – | – | – | –
2 | Cc1cc(Nc2ncc(Cl)c(Nc3ccccc3S(=O)(=O)C(C)C)n2)c(OC(C)C)cc1C1CCNCC1 [CERITINIB] | > 30 µM (inactive) | – | > 30 µM (inactive) | > 30 µM (inactive) | > 30 µM (inactive) | > 30 µM (inactive) | –
3 | C[C@@H](N)c1ccc(C(=O)Nc2ccnc3[nH]ccc23)cc1 [Y-39983] | > 30 µM (inactive) | > 30 µM (inactive) | – | > 30 µM (inactive) | – | > 30 µM (inactive) | > 30 µM (inactive)
4 | Cc1cc(Nc2ncnc3ccc(NC4=NC(C)(C)CO4)cc23)ccc1Oc1ccn2ncnc2c1 [TUCATINIB] | > 30 µM (inactive) | > 30 µM (inactive) | > 30 µM (inactive) | > 30 µM (inactive) | – | – | –
5 | CCS(=O)(=O)N1CCN(c2ccc(Nc3ncc(C(N)=O)c(NC4CC4)n3)cc2)CC1 [Cerdulatinib Hydrochloride] | > 30 µM (inactive) | > 30 µM (inactive) | > 30 µM (inactive) | > 30 µM (inactive) | – | > 30 µM (inactive) | –
6 | NC1(c2ccc(-c3nc4ccn5c(=O)[nH]nc5c4cc3-c3ccccc3)cc2)CCC1 [MK-2206] | > 30 µM (inactive) | > 30 µM (inactive) | > 30 µM (inactive) | – | – | > 30 µM (inactive) | –
7 | Cc1nc2cc(-c3nn(C(C)C)c4ncnc(N)c34)ccc2o1 | > 30 µM (inactive) | – | – | > 30 µM (inactive) | – | > 30 µM (inactive) | –
8 | O=C1NC(=O)[C@@H](c2cn3c4c(cccc24)CCC3)[C@@H]1c1c[nH]c2ccccc12 [TIVANTINIB] | > 30 µM (inactive) | – | – | – | – | > 30 µM (inactive) | –
9 | COCC(=O)NC/C=C/c1ccc2ncnc(Nc3ccc(Oc4ccc(C)nc4)c(C)c3)c2c1 [CP-724714] | > 30 µM (inactive) | > 30 µM (inactive) | – | > 30 µM (inactive) | – | > 30 µM (inactive) | –
10 | Cc1nc(NC(=O)N2CCC[C@H]2C(N)=O)sc1-c1ccnc(C(C)(C)C(F)(F)F)c1 [ALPELISIB] | – | – | > 30 µM (inactive) | – | – | – | > 30 µM (inactive)
11 | CNC(=O)c1nn(C)c2c1C(C)(C)Cc1cnc(Nc3ccc(N4CCN(C)CC4)cc3)nc1-2 [MILCICLIB] | – | > 30 µM (inactive) | > 30 µM (inactive) | > 30 µM (inactive) | > 30 µM (inactive) | > 30 µM (inactive) | > 30 µM (inactive)
12 | COc1ncc(-c2ccc3nccc(-c4ccnnc4)c3c2)cc1NS(=O)(=O)c1ccc(F)cc1F [OMIPALISIB] | > 30 µM (inactive) | > 30 µM (inactive) | > 30 µM (inactive) | – | > 30 µM (inactive) | – | –
13 | Cc1cnc(NC(=O)Nc2cc(Br)c(C)cc2OC[C@@H]2CNCCO2)cn1 [RABUSERTIB] | > 30 µM (inactive) | > 30 µM (inactive) | – | > 30 µM (inactive) | – | > 30 µM (inactive) | > 30 µM (inactive)
14 | O=C(Nc1nc2cccc(-c3ccc(CN4CCS(=O)(=O)CC4)cc3)n2n1)C1CC1 [FILGOTINIB] | – | – | > 30 µM (inactive) | – | – | > 30 µM (inactive) | > 30 µM (inactive)
15 | CNC(=O)c1cc(Oc2ccc(NC(=O)Nc3cc(C(C)(C)C)nn3-c3ccc4ncccc4c3)c(F)c2)ccn1 [REBASTINIB] | > 30 µM (inactive) | – | > 30 µM (inactive) | – | > 30 µM (inactive) | – | –
16 | C=CC(=O)N1CCC[C@H](n2c(=O)n(-c3ccc(Oc4ccccc4)cc3)c3c(N)ncnc32)C1 | > 30 µM (inactive) | – | – | > 30 µM (inactive) | – | > 30 µM (inactive) | > 30 µM (inactive)
17 | COc1cc2c(Nc3ccc(Cl)c(Cl)c3F)ncnc2cc1OC[C@@H]1C[C@@H]2CN(C)C[C@@H]2C1 [TESEVATINIB] | 0.002 µM | – | > 30 µM (inactive) | > 30 µM (inactive) | > 30 µM (inactive) | > 30 µM (inactive) | > 30 µM (inactive)
18 | Cn1cnc2c(F)c(Nc3ccc(Br)cc3F)c(C(=O)NOCCO)cc21 [BINIMETINIB] | > 30 µM (inactive) | > 30 µM (inactive) | – | – | – | – | > 30 µM (inactive)
19 | COc1c(OCCCN2CCOCC2)ccc2c1N=C(NC(=O)c1cnc(N)nc1)N1CCN=C21 [COPANLISIB] | – | – | > 30 µM (inactive) | > 30 µM (inactive) | – | > 30 µM (inactive) | > 30 µM (inactive)
20 | C=CC(=O)Nc1cc2c(Nc3ccc(F)c(Cl)c3)ncnc2cc1C#CC(C)(C)N1CCN(C)CC1 [AV-412 FREE BASE] | > 30 µM (inactive) | – | – | > 30 µM (inactive) | – | > 30 µM (inactive) | –
21 | C[C@@H](NC(=O)c1ncnc(N)c1Cl)c1ncc(C(=O)Nc2cc(C(F)(F)F)c(Cl)cn2)s1 [TOVORAFENIB] | – | > 30 µM (inactive) | > 30 µM (inactive) | > 30 µM (inactive) | > 30 µM (inactive) | > 30 µM (inactive) | 0.146 µM

Continued, values first:

Row | Kd [1] | Kd [2] | Kd (Misshapen-like kinase 1) | Kd [3] | Kd [4] | Kd [5] | Kd [6] | Structure (SMILES)
22 | – | – | > 30 µM (inactive) | > 30 µM (inactive) | > 30 µM (inactive) | – | > 30 µM (inactive) | Cc1cc(C(=O)NOCCO)c(Nc2ccc(I)cc2F)n(C)c1=O [AZD-8330]
23 | > 30 µM (inactive) | > 30 µM (inactive) | > 30 µM (inactive) | > 30 µM (inactive) | > 30 µM (inactive) | > 30 µM (inactive) | – | C#Cc1cccc(Nc2ncnc3cc(OC)c(OCCCCCCC(=O)NO)cc23)c1 [CUDC-101]
24 | – | > 30 µM (inactive) | > 30 µM (inactive) | 1.93 µM (active) | – | 0.003 µM (active) | > 30 µM (inactive) | Cc1nc(Nc2n[nH]c3c2CN(C(=O)N[C@H](CN(C)C)c2ccccc2)C3(C)C)c2sccc2n1 [PF-03758309]
25 | > 30 µM (inactive) | – | – | – | > 30 µM (inactive) | – | > 30 µM (inactive) | Cc1csc(-c2nnc(Nc3ccc(Oc4ncccc4-c4ccnc(N)n4)cc3)c3ccccc23)c1 [AMG-900]
26 | > 30 µM (inactive) | – | > 30 µM (inactive) | – | – | > 30 µM (inactive) | > 30 µM (inactive) | Nc1ncnc2c1c(-c1cccc(OCc3ccccc3)c1)cn2[C@H]1C[C@@H](CN2CCC2)C1 [AEW-541]
27 | > 30 µM (inactive) | – | – | – | – | – | – | C[C@@H](Oc1cc(-n2cnc3ccc(CN4CCN(C)CC4)cc32)sc1C(N)=O)c1ccccc1C(F)(F)F [GSK-461364]
28 | > 30 µM (inactive) | > 30 µM (inactive) | – | – | – | – | – | O=C(NOCCO)c1cc(CN2OCCCC2=O)c(F)c(F)c1Nc1ccc(I)cc1F [RO-4987655]
29 | > 30 µM (inactive) | > 30 µM (inactive) | – | > 30 µM (inactive) | > 30 µM (inactive) | > 30 µM (inactive) | – | CCn1c(C(=O)N(C2CC2)C2CC2)cc2c3c(ncn3C)c(Nc3cc(C)n(C)n3)nc21 [BMS-911543]
